According to PubChem BioAssay AID1963438 (Molecular Pharmacology Branch, DTP, NCI, 2024):
Several values for one entry are separate records, joined by “and”; a condition that tells them apart may be missing. Equal values may be shown once.

System: NCI-H510 multicellular tumor spheroid growth, % test/control
Assay: Anticancer human tumor NCI-H510 cell line growth inhibition [Asc];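 further: spheroids exposed to agents for 7 days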;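 on viability, T/C: 100% = DMSO vehicle control wells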
Conditions: for viability, T/C: stronger effect = lower value; active means viability on the fitted dose curve at most 10% of control; inactive means the rest
Outline: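 Concentration series start at each agent's clinical Cmax, or at 10 microM when none is established, and drop in half-log steps; agents are applied alone or together to complex spheroids built with HUVEC and hMSC.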

[1] = curve of first compound, second compound 0.01 µM
[2] = curve of first compound, second compound 0.0316 µM
[3] = curve of first compound, second compound 0.1 µM
[4] = curve of first compound, second compound 0.316 µM
[5] = curve of first compound, second compound 1 µM
[6] = second compound 0.01 µM, first compound 0.00949 µM
[7] = second compound 0.01 µM, first compound 0.03 µM
[8] = second compound 0.01 µM, first compound 0.0949 µM
[9] = second compound 0.01 µM, first compound 0.3 µM
[10] = second compound 0.0316 µM, first compound 0.00949 µM
[11] = second compound 0.0316 µM, first compound 0.03 µM
[12] = second compound 0.0316 µM, first compound 0.0949 µM
[13] = second compound 0.0316 µM, first compound 0.3 µM
[14] = second compound 0.1 µM, first compound 0.00949 µM
[15] = second compound 0.1 µM, first compound 0.03 µM
[16] = second compound 0.1 µM, first compound 0.0949 µM
[17] = second compound 0.1 µM, first compound 0.3 µM
[18] = second compound 0.316 µM, first compound 0.00949 µM
[19] = second compound 0.316 µM, first compound 0.03 µM
[20] = second compound 0.316 µM, first compound 0.0949 µM
[21] = second compound 0.316 µM, first compound 0.3 µM
[22] = second compound 1 µM, first compound 0.00949 µM
[23] = second compound 1 µM, first compound 0.03 µM
[24] = second compound 1 µM, first compound 0.0949 µM
[25] = second compound 1 µM, first compound 0.3 µM

Cc1nc(N2CCC3(CC2)COC(C)C3N)c(CO)nc1Sc1ccnc(N)c1Cl (centres undefined) + CNC(C)C(=O)NC1CN(S(=O)(=O)c2cccc(S(=O)(=O)N3CCC4CCC(C(=O)NC(c5ccccc5)c5ccccc5)N4C(=O)C(NC(=O)C(C)NC)C3)c2)CCC2CCC(C(=O)NC(c3ccccc3)c3ccccc3)N2C1=O
> 3 µM: IC50 (curve of first compound, second compound 0.00316 µM) | IC50 [1] | IC50 [2] | IC50 [3] | IC50 [4] | IC50 [5]
inactive: viability, T/C (second compound 0.00316 µM, first compound 0.00949 µM) 103% | viability, T/C (second compound 0.00316 µM, first compound 0.03 µM) 95.3% | viability, T/C (second compound 0.00316 µM, first compound 0.0949 µM) 104% | viability, T/C (second compound 0.00316 µM, first compound 0.3 µM) 89% | viability, T/C (second compound 0.00316 µM, first compound 0.949 µM) 98.5% | viability, T/C (second compound 0.00316 µM, first compound 3 µM) 106% | viability, T/C [6] 102% | viability, T/C [7] 108% | viability, T/C [8] 99.9% | viability, T/C [9] 105% | viability, T/C (second compound 0.01 µM, first compound 0.949 µM) 93.9% | viability, T/C (second compound 0.01 µM, first compound 3 µM) 102% | viability, T/C [10] 97.9% | viability, T/C [11] 88.3% | viability, T/C [12] 95.9% | viability, T/C [13] 99.8% | viability, T/C (second compound 0.0316 µM, first compound 0.949 µM) 94.7% | viability, T/C (second compound 0.0316 µM, first compound 3 µM) 111% | viability, T/C [14] 99.3% | viability, T/C [15] 99.2% | viability, T/C [16] 109% | viability, T/C [17] 88.1% | viability, T/C (second compound 0.1 µM, first compound 0.949 µM) 99.5% | viability, T/C (second compound 0.1 µM, first compound 3 µM) 106% | viability, T/C [18] 91.8% | viability, T/C [19] 117% | viability, T/C [20] 94.9% | viability, T/C [21] 98.5% | viability, T/C (second compound 0.316 µM, first compound 0.949 µM) 94.7% | viability, T/C (second compound 0.316 µM, first compound 3 µM) 95% | viability, T/C [22] 106% | viability, T/C [23] 91.1% | viability, T/C [24] 104% | viability, T/C [25] 94.3% | viability, T/C (second compound 1 µM, first compound 0.949 µM) 90.6% | viability, T/C (second compound 1 µM, first compound 3 µM) 100%

O=C(c1ccc(F)c(F)c1Nc1ccc(I)cc1F)N1CC(O)([C@@H]2CCCCN2)C1 + Cc1c(S(C)(=O)=O)c(-c2cc(F)cc(N3CCN(c4ccc(NS(=O)(=O)c5ccc(NC(CCN6CCC(C(=O)OCCCP(=O)(O)O)CC6)CSc6ccccc6)c(S(=O)(=O)C(F)(F)F)c5)cc4)CC3)c2)c(-c2ccc(Cl)cc2)n1C(C)C
> 1 µM: IC50 [3] | IC50 [4] | IC50 [5] | IC50 (curve of first compound, second compound 3.16 µM) | IC50 (curve of first compound, second compound 10 µM)
inactive: viability, T/C (second compound 0.1 µM, first compound 0.00316 µM) 113% | viability, T/C (second compound 0.1 µM, first compound 0.01 µM) 107% | viability, T/C (second compound 0.1 µM, first compound 0.0316 µM) 115% | viability, T/C (second compound 0.1 µM, first compound 0.1 µM) 96.9% | viability, T/C (second compound 0.1 µM, first compound 0.316 µM) 90% | viability, T/C (second compound 0.1 µM, first compound 1 µM) 87.4% | viability, T/C (second compound 0.316 µM, first compound 0.00316 µM) 124% | viability, T/C (second compound 0.316 µM, first compound 0.01 µM) 104% | viability, T/C (second compound 0.316 µM, first compound 0.0316 µM) 113% | viability, T/C (second compound 0.316 µM, first compound 0.1 µM) 88.7% | viability, T/C (second compound 0.316 µM, first compound 0.316 µM) 58.7% | viability, T/C (second compound 0.316 µM, first compound 1 µM) 83% | viability, T/C (second compound 1 µM, first compound 0.00316 µM) 99.7% | viability, T/C (second compound 1 µM, first compound 0.01 µM) 115% | viability, T/C (second compound 1 µM, first compound 0.0316 µM) 126% | viability, T/C (second compound 1 µM, first compound 0.1 µM) 89.8% | viability, T/C (second compound 1 µM, first compound 0.316 µM) 86.9% | viability, T/C (second compound 1 µM, first compound 1 µM) 91.7% | viability, T/C (second compound 3.16 µM, first compound 0.00316 µM) 107% | viability, T/C (second compound 3.16 µM, first compound 0.01 µM) 88.1% | viability, T/C (second compound 3.16 µM, first compound 0.0316 µM) 108% | viability, T/C (second compound 3.16 µM, first compound 0.1 µM) 104% | viability, T/C (second compound 3.16 µM, first compound 0.316 µM) 81.3% | viability, T/C (second compound 3.16 µM, first compound 1 µM) 81.4% | viability, T/C (second compound 10 µM, first compound 0.00316 µM) 74.7% | viability, T/C (second compound 10 µM, first compound 0.01 µM) 105% | viability, T/C (second compound 10 µM, first compound 0.0316 µM) 96.1% | viability, T/C (second compound 10 µM, first compound 0.1 µM) 105% | viability, T/C (second compound 10 µM, first compound 0.316 µM) 78.3% | viability, T/C (second compound 10 µM, first compound 1 µM) 64.3%

NC(=O)C(=Cn1cnc(-c2cc(C(F)(F)F)cc(C(F)(F)F)c2)n1)c1cncnc1 + CNC(C)C(=O)NC1CN(S(=O)(=O)c2cccc(S(=O)(=O)N3CCC4CCC(C(=O)NC(c5ccccc5)c5ccccc5)N4C(=O)C(NC(=O)C(C)NC)C3)c2)CCC2CCC(C(=O)NC(c3ccccc3)c3ccccc3)N2C1=O
inactive: viability, T/C (second compound 0.01 µM, first compound 0.000949 µM) 104% | viability, T/C (second compound 0.01 µM, first compound 0.003 µM) 112% | viability, T/C [6] 104% | viability, T/C [7] 92.3% | viability, T/C [8] 110% | viability, T/C [9] 101% | viability, T/C (second compound 0.0316 µM, first compound 0.000949 µM) 92.3% | viability, T/C (second compound 0.0316 µM, first compound 0.003 µM) 101% | viability, T/C [10] 102% | viability, T/C [11] 108% | viability, T/C [12] 112% | viability, T/C [13] 108% | viability, T/C (second compound 0.1 µM, first compound 0.000949 µM) 110% | viability, T/C (second compound 0.1 µM, first compound 0.003 µM) 94.5% | viability, T/C [14] 107% | viability, T/C [15] 110% | viability, T/C [16] 112% | viability, T/C [17] 96.8% | viability, T/C (second compound 0.316 µM, first compound 0.000949 µM) 115% | viability, T/C (second compound 0.316 µM, first compound 0.003 µM) 116% | viability, T/C [18] 109% | viability, T/C [19] 87.3% | viability, T/C [20] 109% | viability, T/C [21] 95.9% | viability, T/C (second compound 1 µM, first compound 0.000949 µM) 93.7% | viability, T/C (second compound 1 µM, first compound 0.003 µM) 107% | viability, T/C [22] 93.6% | viability, T/C [23] 104% | viability, T/C [24] 105% | viability, T/C [25] 92.9%
> 0.3 µM: IC50 [1] | IC50 [2] | IC50 [3] | IC50 [4] | IC50 [5]

NC1CCC(NC2CC2c2ccccc2)CC1 (centres undefined)
> 0.1 µM: IC50 (curve of compound)
inactive: viability, T/C (compound 0.000316 µM) 67.7% and 77.1% and 95.6% | viability, T/C (compound 0.001 µM) 69.7% and 75.9% and 98.6% | viability, T/C (compound 0.00316 µM) 79.1% and 83% and 96.4% | viability, T/C (compound 0.01 µM) 69.3% and 84.8% and 101% | viability, T/C (compound 0.0316 µM) 89.1% and 83.1% and 91.1% | viability, T/C (compound 0.1 µM) 65% and 77.7% and 93%
